According to PubChem BioAssay (NCI):
Values joined by “and” are separate entries in the source; they are usually repeats but may differ in a detail not shown here. Equal values may be shown once.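 Grown in 96-well plates, cells were treated for 48 hours with each compound at five concentrations. Insufficient inhibition: endpoint recorded as highest concentration tested. At the GI50, growth is halved. Definition used: TGI = concentration required for complete inhibition of growth.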

Legend:
Experiment in all cases: growth of human tumour cells (NCI), 48 h
NCI-H23 lung = test system: NCI-H23 lung
SF-295 CNS = test system: SF-295 CNS
SF-268 CNS = test system: SF-268 CNS
KM12 colon = test system: KM12 colon
A549 NSCLC = test system: A549 NSCLC
K-562 leukemia = test system: K-562 leukemia
A498 renal = test system: A498 renal
OVCAR-4 ovarian = test system: OVCAR-4 ovarian
HOP-92 NSCLC = test system: HOP-92 NSCLC
BT-549 breast = test system: BT-549 breast

SMILES	TGI (NCI-H23 lung) [µM]	TGI (SF-295 CNS) [µM]	TGI (SF-268 CNS) [µM]	TGI (KM12 colon)	TGI (A549 NSCLC) [µM]	TGI (K-562 leukemia) [µM]	TGI (A498 renal) [µM]	TGI (OVCAR-4 ovarian) [µM]	GI50 (NCI-H23 lung) [µM]	GI50 (SF-295 CNS) [µM]	GI50 (SF-268 CNS) [µM]	GI50 (HOP-92 NSCLC) [µM]	TGI (HOP-92 NSCLC) [µM]	GI50 (KM12 colon) [µM]	GI50 (A549 NSCLC) [µM]	GI50 (K-562 leukemia) [µM]	GI50 (OVCAR-4 ovarian) [µM]	GI50 (BT-549 breast) [µM]	TGI (BT-549 breast) [µM]	GI50 (A498 renal) [µM]
CN(C)CC/C(=N\Nc1ccc(Cl)c(Cl)c1)c1ccccc1	3.67	3.99	3.48	3.92 µM	3.8	4.68	9.13	5.01												
Cc1ccc2c(Nc3cccc(Cl)c3F)ncc(NC(=O)c3csc4c(N)ncnc34)c2c1	> 100	> 100	> 100	> 100 µM	> 100	> 100		> 100	0.522	> 100	> 100	0.136	1.72	> 20.7	> 73.5	1.5	> 100	> 100	> 100	
COc1cc2ccnc(-c3c4ccccc4c(N)c4c(OC)c(OC)ccc34)c2cc1OC	17.7	13.9	18.6	11.3 µM	17.3	7.98	8.89	11.7					9.35							
ICCC(c1ccccc1)(c1ccccc1)c1ccccc1	31	5.07	16.8	15.4 µM	19.6	4.93		30.8	13.4	2.02	4.4	2.7	18.2	4.45	5.92	1.67	11.6			
Cc1ccc(S(=O)(=O)SCc2ccccc2CSS(=O)(=O)c2ccc(C)cc2)cc1	46.4	> 100	> 100	> 100 µM	> 100	47	> 100	33.9					51.7							
O=Cc1ccc(Oc2c3ccccc3nc3occc23)cc1	36	36.8	40.8	25.4 µM	50.5	> 100		52.9	15	14.4	15.5			8.79	22.4	22.6	15.8			
O=C1OC(C2=CC(=O)c3ccccc3C2=O)C(Cl)=C1Cl (stereo not drawn)	59.4	> 100	79.2	> 100 µM	> 100	83.3	> 100						> 100							
Cc1ccccc1NC(=O)C1C(=O)N(c2ccccc2C)C(=O)/C1=N\N (stereo not drawn)	> 100	> 100	> 100	> 100 µM	> 100	> 100	> 100	> 100					> 100							
O=C(Nc1ccccc1)NS(=O)(=O)c1ccc(N2N=C3c4ccccc4CC3C2c2ccccn2)cc1 (stereo not drawn)	52.2	50	> 100	88.7 µM	> 100	65.6		> 100	20.8	20.6	62.1	74.9	> 100	24.8	29.2	26.7	> 100	30.6	> 100	
CCC[CH2][Sn]([CH2]CCC)([O]C(=O)c1cc(OC)c(OC)cc1OC)[O]C(=O)c1cc(OC)c(OC)cc1OC	1.96	5.88	2.54	4.07 µM	18.3	2.97	3.21	4.31	0.674	2.28	1.23			1.75	5.14	0.324	1.9			1.48
COc1cc(/C=C/c2ccc(OC(C)=O)cc2)cc(OC)c1OC		66.3	> 100	> 100 µM	85.2	> 100	71.8	> 100					80.2							
COc1c(NC(=O)CC(C)=O)[c]([Hg][O]C(C)=O)c(OC)c(Cl)[c]1[Hg][O]C(C)=O	27.6	31.8	28.5	26.7 µM	47	41.1		35.7	11.8	17	12.8	4.13	11.6	13.8	21.9	8.46	14.5			
CC(=O)C1C(=O)C(=O)N(c2ccccc2N2C(=O)C(=O)C(C(C)=O)C2=O)C1=O (stereo not drawn)	> 100	> 100	> 100	> 100 µM	> 100	> 100	> 100	> 100					> 100							
O=C1c2cc3c(cc2[C@@H]2[C@H]1c1ccc([N+](=O)[O-])cc1C(=O)N2CCCCl)OCO3	0.0398	11.4		2.05 µM	> 100	> 100	< 0.01	> 100	< 0.01	< 0.01	< 0.01	< 0.03	> 100	< 0.0113	< 0.01	0.857	0.151			< 0.01
N#CCN1CCOCCOCCN(CC#N)CCOCCOCC1	> 100	> 100	> 100		> 100	> 100	> 100	> 100					> 100							
O=C(CC(=O)Nc1ccccc1O)Nc1ccccc1O	64.3	> 100	75.8	> 100 µM	95.1	25.7	> 100	> 100					> 100							
CC1=C(C(=O)CC(=O)C(=O)Nc2ccccc2)Sc2ccccc2N1	> 100	> 100	> 100	> 100 µM	> 100	> 100	> 100	> 100					> 100							
C#C[C@@]1(O)[C@@H](CO)O[C@@H](n2ccc3c(N)ncnc32)[C@@H]1O	4.32	5.33	26.1	10.9 µM	> 100	> 100		7.79	1.18	1.73	2.33	2.04	5.56	1.82	1.31	0.806	1.97	1.63	3.64	
Cc1ccc(C2(O)CC(c3ccc([N+](=O)[O-])o3)=NN2C(=O)COc2ccccc2Cl)cc1 (stereo not drawn)	33.6	> 100	> 76	> 100 µM	> 100	> 100	> 100	> 100					> 95.3							
Nc1nc(N)c(N=O)c(Nc2ccc(I)cc2)n1	82.5	67.9	74.1	> 100 µM	> 100	> 100														

SMILES	TGI (NCI-H23 lung) [µM]	TGI (SF-295 CNS) [µM]	TGI (SF-268 CNS) [µM]	TGI (KM12 colon)	TGI (A549 NSCLC) [µM]	TGI (K-562 leukemia) [µM]	TGI (A498 renal) [µM]	TGI (OVCAR-4 ovarian) [µM]	GI50 (NCI-H23 lung) [µM]	GI50 (SF-295 CNS) [µM]	GI50 (SF-268 CNS) [µM]	GI50 (HOP-92 NSCLC) [µM]	TGI (HOP-92 NSCLC) [µM]	GI50 (KM12 colon) [µM]	GI50 (A549 NSCLC) [µM]	GI50 (K-562 leukemia) [µM]	GI50 (OVCAR-4 ovarian) [µM]	GI50 (BT-549 breast) [µM]	TGI (BT-549 breast) [µM]	GI50 (A498 renal) [µM]
CCCCCCCCCC1C(C)c2c([nH]c3ccccc23)C2C(=O)N(c3ccccc3)C(=O)C21 (stereo not drawn)	13.6	28.9		16.2 µM	> 100	15.9	33.8	19.1												
COc1cc2c(c(OC)c1OC)-c1ccc(SC)c(=O)cc1[C@@H](NCc1cccc(C#N)c1)CC2	< 0.0075			0.0509 µM and 0.0128 µM	> 75	18.2	0.0732	> 75		< 0.0075	< 0.0075	< 0.0075	> 75	< 0.0075	< 0.0075	< 0.0075				
COc1ccc2[nH]c(=O)c(/C=C/C(=O)/C=C/c3ccc(O)c(OC)c3)cc2c1	4.88	7.36	7.14	2.66 µM	6.35	> 100		29.4	2.04	2.36	2.25	1.84	5.06	1.08	2.24	1.35	2.91	1.37	2.66	
CCOC(=O)N1N=NC2C3OC(C[C@@]3(C#N)OC(C)=O)[C@H]21 (stereo partly drawn)	> 100	> 100	> 100	> 100 µM	> 100	> 100		> 100					> 100							
CN(C)CCNC(=O)Cn1ccc(=O)c2ccc([N+](=O)[O-])cc21	> 100	> 100	> 100	> 100 µM	> 100	> 100	> 100	> 100					> 100							
CCC1(C(=O)OC)CCc2c(OC)ccc(OC)c2C1=O (stereo not drawn)	> 100	> 100	> 100	> 100 µM	> 100	> 100	> 100	> 100												
CC(=O)OCC1OC(n2c(=O)n(-c3ccccc3)c(=O)c3cc(Br)cc(Br)c32)C(OC(C)=O)C(OC(C)=O)C1OC(C)=O (stereo not drawn)	> 100	> 100	> 100	> 100 µM	> 100	> 100	> 100	61.5					> 100							
CC[C@H](C)[C@H](NC(=O)Nc1ccccc1)C(=O)N(C)[C@H](C[C@@H](OC(C)=O)c1nc(C(=O)N[C@@H](Cc2ccccc2)C[C@H](C)C(=O)OC)cs1)C(C)C	> 100	> 100	> 100	> 100 µM	> 100			> 100	5.8	2.76	5.13	1.34	62.9	2.09	7.49		6.06	3.09	41.2	
Cc1c(C(=O)/C=C/c2ccccc2Cl)[n+](=O)c2ccccc2n1[O-]	28.5	28		27.3 µM	33.3	26.5	26.9	25.8					28.7							
COc1cc(C(=O)C/C(CCC(=O)Nc2ccc(Cl)cc2Cl)=N/NC(=O)C(N)=O)ccc1O	> 100	> 100	> 100	> 100 µM	> 100	> 100	> 100	> 100					> 100							
CC(=O)Nc1ccccc1-c1cnc2ccccc2n1	> 100	> 100	> 100	> 100 µM	> 100	> 100	> 100	> 100					> 100							
CC(C)(C)OC(=O)NC1CCC[C@H]1O (stereo partly drawn)	> 100	> 100	> 100	> 100 µM	> 100	> 100	> 100	> 100					> 100							
Nc1ccc2c(c1)CC1c3ccccc3C(C2)c2ccccc21		> 100	> 100	> 100 µM	> 100	> 100	> 100	> 100					> 100							
O=C(O)CCCCCO	> 100	> 100	> 100	> 100 µM	> 100	> 100	> 100	> 100					> 100							
CCOC(=O)C(Cc1ccccc1)NC(=O)OC(C)(C)C (stereo not drawn)	> 100	> 100	> 100	> 100 µM	> 100	> 100	> 100						> 100							
COc1cc2ccnc3c2c(c1OC)-c1ccc(=O)ccc1-3		67.8	> 100	> 100 µM	55.4	35.5		74.7		23.2	39.1	14.4	80.4	43.6	18.2	14.5	21.7	32.1	> 100	
COc1cc(Cn2ccc3c2-c2oncc2CC3)cc(OC)c1	52.9	28.8	> 100	28.5 µM	> 100	> 100	6.99	> 100	3.89	3.05	10.1	4.25	47	2.02	5.23	0.594	16.4			1.16
CCc1ccc(Nc2cc(=O)[nH]c(=S)n2C)cc1	> 100	> 100	> 100	> 100 µM	> 100	> 100	> 100	> 100					> 100							
O=C(/C=C/c1ccccc1O)c1cccnc1	> 100	> 100	> 100	> 100 µM	> 100	> 100	> 100	> 100												
